Three molecules from publication PMC6613030, “LC-ESI-MS/MS Phenolic Profile of Volutaria lippii (L.) Cass. Extracts and Evaluation of Their In Vitro Antioxidant, Antiacetylcholinesterase, Antidiabetic, and Antibacterial Activities” (Evidence-based Complementary and Alternative Medicine : eCAM, 2019) can be followed below.

In one experiment the target is T1, pancreatic α-amylase (Sus scrofa, UniProt P00690).
T1 construct: purchased Merck (Sigma-Aldrich, Steinheim, Germany)
T1 sequence (P00690 16-511): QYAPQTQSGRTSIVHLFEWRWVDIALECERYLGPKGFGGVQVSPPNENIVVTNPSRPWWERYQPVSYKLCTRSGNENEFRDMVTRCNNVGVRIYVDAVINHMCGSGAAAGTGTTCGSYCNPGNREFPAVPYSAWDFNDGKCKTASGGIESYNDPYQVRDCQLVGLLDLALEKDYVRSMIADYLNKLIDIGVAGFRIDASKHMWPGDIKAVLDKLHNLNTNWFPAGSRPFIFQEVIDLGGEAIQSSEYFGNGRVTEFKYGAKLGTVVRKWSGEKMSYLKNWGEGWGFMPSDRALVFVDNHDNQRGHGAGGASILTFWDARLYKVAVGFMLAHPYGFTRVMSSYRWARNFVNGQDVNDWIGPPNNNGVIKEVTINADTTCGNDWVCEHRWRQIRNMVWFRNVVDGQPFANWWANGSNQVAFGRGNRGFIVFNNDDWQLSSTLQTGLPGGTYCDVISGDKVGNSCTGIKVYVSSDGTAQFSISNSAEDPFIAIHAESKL
As to the kind of experiment: biochemical. The protocol: The in vitroα-amylase inhibitory assay of all fractions was performed by the previous method described by Gella et al.. […] Percentage inhibition (PI) was calculated by the following expression:(3) PI%=Acontrol – Asample/Acontrol×100 where Acontrol is the absorbance of the control and Asample is the absorbance of the test sample.

The next experiment has as its system Bacillus thuringiensis. Kind of experiment: Antibacterial activity, agar disc diffusion. Format: cell-based. The note with it: 10 μg / disc, positive control. The protocol:
(§1) The V. lippii fractions were assessed against a five bacterial strains: Gram-negative: Salmonella enterica (CIP 8039) and Escherichia coli (ATCC 8739), Gram-positive: Staphylococcus aureus (ATCC 6538), Bacillus thuringiensis, and Enterococcus faecalis (ATCC 29212). Bacteria not obtained from an ATCC collection were acquired from the Microbiology Department, Faculty of Science, University of Sfax (Tunisia). Bacterial strains were cultured in Mueller-Hinton agar (MHA) for 24 h at 37°C.
(§2) The disc diffusion method was employed for the determination of antibacterial activities of V. lippii fractions according to the method described by Berghe and Vlietinck. Antibacterial activities were evaluated by measuring the diameters of the inhibition zones against the test organisms and compared to penicillin (10 μg per disk) as the positive control. Tests were carried out in triplicate.
In general terms: Agar diffusion results depend on both activity and mobility in agar.

For experiment [1], the system named is Staphylococcus aureus (ATCC 6538). As to the kind of experiment: Antibacterial activity, agar disc diffusion. Format: cell-based. The note with it: 10 μg / disc, positive control. How it is done:
as §1, §2

The subject of experiment [2] is Enterococcus faecalis (ATCC 29212). As to the kind of experiment: Antibacterial activity, agar disc diffusion. Format: cell-based. The note with it: 10 μg / disc, positive control. How it is done: as §1, §2
The test system of experiment [3] is Escherichia coli (ATCC 8739). As to the kind of experiment: Antibacterial activity, agar disc diffusion. The note with it: 10 μg / disc, positive control. Format: cell-based. How it is done:
as §1, §2

Experiment [4] is described as follows: DPPH radical scavenging assay. The note with it: 30 min in the dark, absorbance at 517 nm. On the technique in general: DPPH is a stable violet radical that fades when it is reduced.
Description: The DPPH radical scavenging activity of different fractions of V. lippii was evaluated following the procedure described by Les et al. [14]. […] The final concentrations in the reaction's mixture were 0.005-0.5 mg/mL. Each mixture was shaken and allowed in the dark for 30 min at room temperature. The blank was prepared as above without any extract and the BHT was used as positive control. […] The PI was calculated using the following equation:(1) PI%=Ablank – Asample/Ablank×100 where Ablank is the absorbance of the blank and Asample is the absorbance of the test sample.
The calibration curve for scavenging percentage against extract concentration was plotted and the IC50 (half maximal inhibitory concentration) value of each sample was established.
The nature of experiment [5]: Reducing power assay (FRAP). The note with it: effective concentration at which the absorbance is 0.5 (700 nm). How it is done: The reducing power of all fractions was evaluated using the procedure of Yildirim et al., and BHT was used as positive control. A 1 mL of different concentrations of each V. lippii sample (5, 10, 25, 50,100 μg/mL) was mixed with 2.5 mL of 1% potassium ferricyanide and 2.5 mL of sodium phosphate buffer (0.2 M, pH= 6.6). The mixture was incubated for 20 min at 50°C and then 2.5 mL of 10% trichloroacetic acid were added and centrifuged for 10 minutes. 2.5 mL of the supernatant were mixed with 0.5 mL of ferric chloride solution (0.1%) and 2.5 mL of distilled water. The absorbance of the mixture was measured at 700 nm.

Marks after values point to notes of the source that are not given here.

What is called inhibition is the share of the control response that was lost under treatment. For `C[C@H]1O[C@H](O[C@H]2[C@H](O)[C@@H](O)[C@@H](O[C@H]3[C@H](O)[C@@H](O)C(O)O[C@@H]3CO)O[C@@H]2CO)[C@H](O)[C@@H](O)[C@@H]1N[C@H]1C=C(CO)[C@@H](O)[C@H](O)[C@H]1O` (stereo partly drawn) [Acarbose, acarbose], 2.85 µg/mL produced 29.8 ± 0.07% inhibition against pancreatic α-amylase (concentration 2.85 μg/mL). Besides, the inhibition at 5.71 µg/mL against pancreatic α-amylase (concentration 5.71 μg/mL) worked out at 51.52 ± 0.02%. At pancreatic α-amylase (concentration 11.42 μg/mL), this molecule gave an inhibition at 11.42 µg/mL of 86.62 ± 0.04%.
As to penicillin, the “Inhibition zone in diameter” value in the experiment on Bacillus thuringiensis is 18.0±0.4^d mm; in experiment [1] it was 14.1±0.5^c mm; in experiment [2], 16.0±0.2^c mm; in experiment [3] it was 16.3±0.1^d mm.
For the molecule `Cc1cc(C(C)(C)C)c(O)c(C(C)(C)C)c1` [BHT, butylated hydroxytoluene], in experiment [4], the “DPPH IC50” value is recorded as 13.00±0.57^a μg/mL. Besides, the “Reducing power EC50” value in experiment [5] is 43.35±0.95^a μg/mL.
